This note sets out measurements from PMC10004634 (PLOS ONE, 2023).

Targets include CAMK2D (Homo sapiens, UniProt Q13557); CDK7 (Homo sapiens, UniProt P50613); CDKL1 (Homo sapiens, UniProt Q00532); EGFR(T790M) (Homo sapiens, UniProt P00533, T790M); ERBB4 (Homo sapiens, UniProt Q15303); IGF1R (Homo sapiens, UniProt P08069); KIT(A829P) (Homo sapiens, UniProt P10721, A829P); LCK (Homo sapiens, UniProt P06239); LIMK2 (Homo sapiens, UniProt P53671); PIK3CA (Homo sapiens, UniProt P42336); PKMYT1 (Homo sapiens, UniProt Q99640); ROCK1 (Homo sapiens, UniProt Q13464); SRPK1 (Homo sapiens, UniProt Q96SB4); DYRK2 (Homo sapiens, UniProt Q92630).

Test in all cases: biochemical
Holding throughout (parameters): KINOMEscan scanMAX competition binding, DNA-tagged kinases, qPCR read-out, percent control at 300 nM
On the technique in general: Quantitative PCR measures a nucleic acid by following its amplification.

The target in another assay is T1, ABL1-phosphorylated (Homo sapiens, UniProt P00519).
T1 construct: phosphorylated

The target in the next assay is T2, HPK1 (Homo sapiens, UniProt Q92918).
T2 construct: gene MAP4K1

In the next assay the target is T3, MEK3 (Homo sapiens, UniProt P46734).
T3 construct: gene MAP2K3

The next assay concerns the target T4, MRCKA (Homo sapiens, UniProt Q5VT25).
T4 construct: gene CDC42BPA

The target in a further assay is T5, NIM1 (Homo sapiens, UniProt Q8IY84).
T5 construct: gene NIM1K
T5 sequence (Q8IY84 whole entry): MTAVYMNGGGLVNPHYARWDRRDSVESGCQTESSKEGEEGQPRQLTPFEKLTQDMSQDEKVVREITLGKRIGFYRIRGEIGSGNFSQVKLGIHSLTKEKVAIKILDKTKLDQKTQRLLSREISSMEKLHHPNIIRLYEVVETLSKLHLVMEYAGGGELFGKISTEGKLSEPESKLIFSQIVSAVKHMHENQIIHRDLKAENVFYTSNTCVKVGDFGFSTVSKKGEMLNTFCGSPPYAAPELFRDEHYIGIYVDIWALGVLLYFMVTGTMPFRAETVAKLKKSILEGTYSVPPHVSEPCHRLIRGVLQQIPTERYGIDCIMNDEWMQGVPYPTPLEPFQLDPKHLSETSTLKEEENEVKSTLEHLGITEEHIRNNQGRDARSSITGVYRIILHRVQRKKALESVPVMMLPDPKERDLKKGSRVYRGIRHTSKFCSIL

In assay [1] the target is T6, RPS6KA5(Kin.Dom.2-C-terminal) (Homo sapiens, UniProt O75582).
T6 construct: Kin.Dom.2-C-terminal

The target of another assay is T7, AMPK-alpha1 (Homo sapiens, UniProt Q13131).
T7 construct: gene PRKAA1

Another assay addresses T8, MST2 (Homo sapiens, UniProt Q13188).
T8 construct: gene STK3

The target of assay [2] is T9, RPS6KA4(Kin.Dom.1-N-terminal) (Homo sapiens, UniProt O75676).
T9 construct: Kin.Dom.1-N-terminal
T9 sequence (O75676 whole entry): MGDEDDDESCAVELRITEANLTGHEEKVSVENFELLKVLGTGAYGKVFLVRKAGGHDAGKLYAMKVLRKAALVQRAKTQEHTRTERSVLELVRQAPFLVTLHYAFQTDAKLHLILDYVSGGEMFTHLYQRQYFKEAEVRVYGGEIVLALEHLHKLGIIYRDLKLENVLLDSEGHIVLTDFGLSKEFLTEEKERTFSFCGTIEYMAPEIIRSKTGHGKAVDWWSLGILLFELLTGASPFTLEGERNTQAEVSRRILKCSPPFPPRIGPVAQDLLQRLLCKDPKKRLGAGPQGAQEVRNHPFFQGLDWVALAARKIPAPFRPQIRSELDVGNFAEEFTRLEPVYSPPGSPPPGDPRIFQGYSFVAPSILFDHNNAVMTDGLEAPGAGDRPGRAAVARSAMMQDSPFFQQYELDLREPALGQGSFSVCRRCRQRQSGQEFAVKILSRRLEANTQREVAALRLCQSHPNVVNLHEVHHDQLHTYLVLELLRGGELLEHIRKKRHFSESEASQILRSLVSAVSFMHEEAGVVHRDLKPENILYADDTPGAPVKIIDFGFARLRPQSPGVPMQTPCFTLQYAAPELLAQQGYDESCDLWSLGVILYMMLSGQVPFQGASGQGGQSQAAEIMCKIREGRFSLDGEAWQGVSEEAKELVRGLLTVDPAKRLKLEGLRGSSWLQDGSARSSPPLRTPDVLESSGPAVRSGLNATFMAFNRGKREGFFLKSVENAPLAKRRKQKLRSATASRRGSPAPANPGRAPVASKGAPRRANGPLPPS

[3] abbreviates: read-out: Percent control / Acalabrutinib.
Where [4] appears, read: read-out: Percent control / Ibrutinib.
Where [5] appears, read: read-out: Percent control / Tirabrutinib.
The mark [6] stands for this setting: read-out: Percent control / Zanubrutinib.

Read-outs that look alike come from different tables or passages of the source.

T8 sequence (Q13188 whole entry): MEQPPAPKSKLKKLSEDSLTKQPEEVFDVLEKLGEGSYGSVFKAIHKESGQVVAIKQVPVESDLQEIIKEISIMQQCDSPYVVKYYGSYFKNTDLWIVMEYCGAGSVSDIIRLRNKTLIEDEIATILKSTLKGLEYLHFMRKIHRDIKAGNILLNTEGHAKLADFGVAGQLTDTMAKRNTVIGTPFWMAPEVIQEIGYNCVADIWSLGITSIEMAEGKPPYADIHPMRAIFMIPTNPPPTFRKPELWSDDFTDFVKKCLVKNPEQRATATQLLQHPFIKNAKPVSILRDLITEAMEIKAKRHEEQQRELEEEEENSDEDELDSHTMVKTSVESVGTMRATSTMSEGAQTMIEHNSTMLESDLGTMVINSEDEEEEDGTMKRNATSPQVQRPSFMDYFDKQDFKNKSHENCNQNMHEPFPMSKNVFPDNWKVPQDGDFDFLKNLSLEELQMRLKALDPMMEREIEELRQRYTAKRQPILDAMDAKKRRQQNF
Sequence of CDK7 (P50613 whole entry): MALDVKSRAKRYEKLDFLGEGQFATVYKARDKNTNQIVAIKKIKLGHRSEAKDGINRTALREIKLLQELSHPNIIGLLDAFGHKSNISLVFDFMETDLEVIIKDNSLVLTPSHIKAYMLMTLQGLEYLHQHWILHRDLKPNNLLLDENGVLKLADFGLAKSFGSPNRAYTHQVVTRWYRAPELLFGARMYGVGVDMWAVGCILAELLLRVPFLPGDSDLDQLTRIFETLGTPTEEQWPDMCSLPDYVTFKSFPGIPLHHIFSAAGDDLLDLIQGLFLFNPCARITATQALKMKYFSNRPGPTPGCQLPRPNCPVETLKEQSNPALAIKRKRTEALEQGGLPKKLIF
Sequence of PIK3CA (P42336 whole entry): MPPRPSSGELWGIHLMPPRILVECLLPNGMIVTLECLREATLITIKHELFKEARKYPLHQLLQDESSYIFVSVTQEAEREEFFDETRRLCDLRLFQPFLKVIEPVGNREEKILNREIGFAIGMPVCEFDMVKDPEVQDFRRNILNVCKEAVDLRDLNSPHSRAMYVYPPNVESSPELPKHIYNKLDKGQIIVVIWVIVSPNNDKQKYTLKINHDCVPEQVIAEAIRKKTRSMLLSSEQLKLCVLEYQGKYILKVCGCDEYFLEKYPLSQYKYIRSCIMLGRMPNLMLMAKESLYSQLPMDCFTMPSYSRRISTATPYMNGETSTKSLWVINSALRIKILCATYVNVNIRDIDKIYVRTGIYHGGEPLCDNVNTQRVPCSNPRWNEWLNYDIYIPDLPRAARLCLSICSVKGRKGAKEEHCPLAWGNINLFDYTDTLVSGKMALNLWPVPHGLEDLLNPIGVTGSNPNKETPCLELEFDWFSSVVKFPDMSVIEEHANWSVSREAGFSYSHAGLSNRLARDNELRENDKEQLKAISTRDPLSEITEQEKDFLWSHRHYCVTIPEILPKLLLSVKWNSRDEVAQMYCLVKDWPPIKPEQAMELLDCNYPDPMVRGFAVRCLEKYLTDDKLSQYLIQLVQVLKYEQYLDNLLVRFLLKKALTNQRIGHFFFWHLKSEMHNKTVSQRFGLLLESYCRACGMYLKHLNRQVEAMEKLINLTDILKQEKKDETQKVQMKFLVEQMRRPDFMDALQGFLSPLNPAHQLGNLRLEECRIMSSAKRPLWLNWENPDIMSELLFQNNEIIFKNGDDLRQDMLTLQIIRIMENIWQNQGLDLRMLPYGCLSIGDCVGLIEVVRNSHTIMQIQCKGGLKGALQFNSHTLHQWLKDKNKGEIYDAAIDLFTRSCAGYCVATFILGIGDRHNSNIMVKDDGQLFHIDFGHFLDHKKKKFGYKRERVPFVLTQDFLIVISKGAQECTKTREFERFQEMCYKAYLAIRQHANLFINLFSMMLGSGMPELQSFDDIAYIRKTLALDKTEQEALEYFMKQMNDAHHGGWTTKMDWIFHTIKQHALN
Sequence of DYRK2 (Q92630 whole entry): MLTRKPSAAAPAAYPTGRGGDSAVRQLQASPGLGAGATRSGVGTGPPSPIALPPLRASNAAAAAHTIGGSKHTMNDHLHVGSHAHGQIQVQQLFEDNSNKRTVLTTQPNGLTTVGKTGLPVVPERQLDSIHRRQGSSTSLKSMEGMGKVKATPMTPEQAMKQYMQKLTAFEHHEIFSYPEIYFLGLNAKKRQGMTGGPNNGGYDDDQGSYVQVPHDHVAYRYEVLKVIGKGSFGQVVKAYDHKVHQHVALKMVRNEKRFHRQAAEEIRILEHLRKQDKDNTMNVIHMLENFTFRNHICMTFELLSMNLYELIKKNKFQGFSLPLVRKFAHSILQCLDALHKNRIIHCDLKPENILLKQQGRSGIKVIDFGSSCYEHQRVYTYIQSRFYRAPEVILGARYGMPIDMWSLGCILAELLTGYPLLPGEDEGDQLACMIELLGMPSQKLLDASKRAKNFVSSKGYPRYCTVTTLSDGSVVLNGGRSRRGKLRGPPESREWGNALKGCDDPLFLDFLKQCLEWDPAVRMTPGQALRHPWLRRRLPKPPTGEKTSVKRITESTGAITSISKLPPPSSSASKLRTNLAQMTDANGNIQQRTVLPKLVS
Sequence of SRPK1 (Q96SB4 whole entry): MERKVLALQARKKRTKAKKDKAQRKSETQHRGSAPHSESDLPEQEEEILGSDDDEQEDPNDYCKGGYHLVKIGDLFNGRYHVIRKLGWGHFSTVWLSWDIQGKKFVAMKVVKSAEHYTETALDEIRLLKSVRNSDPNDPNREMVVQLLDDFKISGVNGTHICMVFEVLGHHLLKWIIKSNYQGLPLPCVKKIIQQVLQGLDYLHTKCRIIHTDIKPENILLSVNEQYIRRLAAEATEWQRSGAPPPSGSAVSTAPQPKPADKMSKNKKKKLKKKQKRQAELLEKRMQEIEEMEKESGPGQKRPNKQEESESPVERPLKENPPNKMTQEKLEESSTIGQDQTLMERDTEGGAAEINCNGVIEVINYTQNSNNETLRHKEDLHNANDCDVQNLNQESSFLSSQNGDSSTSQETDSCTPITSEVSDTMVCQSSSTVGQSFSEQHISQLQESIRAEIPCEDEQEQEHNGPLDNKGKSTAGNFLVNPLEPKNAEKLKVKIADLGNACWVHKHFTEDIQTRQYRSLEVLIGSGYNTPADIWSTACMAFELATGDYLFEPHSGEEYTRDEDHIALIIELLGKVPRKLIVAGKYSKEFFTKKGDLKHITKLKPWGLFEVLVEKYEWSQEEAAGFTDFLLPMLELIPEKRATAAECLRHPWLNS
Sequence of PKMYT1 (Q99640 whole entry): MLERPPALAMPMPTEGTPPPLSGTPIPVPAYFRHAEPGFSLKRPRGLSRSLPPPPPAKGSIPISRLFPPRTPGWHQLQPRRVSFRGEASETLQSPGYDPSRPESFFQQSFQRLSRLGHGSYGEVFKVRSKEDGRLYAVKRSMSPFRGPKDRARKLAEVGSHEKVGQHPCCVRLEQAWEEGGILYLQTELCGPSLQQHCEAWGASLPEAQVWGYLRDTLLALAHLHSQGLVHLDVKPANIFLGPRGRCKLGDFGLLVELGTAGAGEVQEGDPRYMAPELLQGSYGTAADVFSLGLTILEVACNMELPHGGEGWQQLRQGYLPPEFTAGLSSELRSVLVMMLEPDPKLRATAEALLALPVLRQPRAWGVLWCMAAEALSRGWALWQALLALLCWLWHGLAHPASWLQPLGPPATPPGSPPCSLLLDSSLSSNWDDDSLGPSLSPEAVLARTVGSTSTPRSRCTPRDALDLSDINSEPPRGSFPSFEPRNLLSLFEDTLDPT

As for `CC#CC(=O)N1CCC[C@H]1c1nc(-c2ccc(C(=O)Nc3ccccn3)cc2)c2c(N)nccn12` [Acalabrutinib], the remaining binding at 0.3 µM at ABL1-phosphorylated (setting [3]) was determined as 95%; on CAMK2D (setting [3]) it was 93%; at CDK7 (setting [3]), 68%; on CDKL1 (setting [3]), 93%; on EGFR(T790M) (setting [3]), 93%; on ERBB4 (setting [3]), 7.7%. Further, the remaining binding at 0.3 µM was 93% on HPK1 (setting [3]); 91% on IGF1R (setting [3]); 80% at KIT(A829P) (setting [3]); 83% on LCK (setting [3]); 96% at LIMK2 (setting [3]); 99% at MEK3 (setting [3]). The remaining binding at 0.3 µM on MRCKA (setting [3]) amounted to 96%; on NIM1 (setting [3]), 99%; at PIK3CA (setting [3]), 97%; on PKMYT1 (setting [3]), 94%; on ROCK1 (setting [3]), 93%; in assay [1] (setting [3]), 92%. Also, the remaining binding at 0.3 µM on SRPK1 (setting [3]) amounted to 84%.

`C=CC(=O)N1CCC[C@@H](n2nc(-c3ccc(Oc4ccccc4)cc3)c3c(N)ncnc32)C1` [Ibrutinib]: the remaining binding at 0.3 µM on AMPK-alpha1 (setting [4]) was determined as 92%; at ERBB4 (setting [4]), 0.15%; on MEK3 (setting [4]), 93%; at MST2 (setting [4]), 85%; in assay [2] (setting [4]), 87%; on SRPK1 (setting [4]), 85%.

`CC#CC(=O)N1CC[C@@H](n2c(=O)n(-c3ccc(Oc4ccccc4)cc3)c3c(N)ncnc32)C1` [Tirabrutinib]: the remaining binding at 0.3 µM on DYRK2 (setting [5]) stood at 99%; on EGFR(T790M) (setting [5]) it was 75%; at LCK (setting [5]) it was 49%.

`C=CC(=O)N1CCC([C@@H]2CCNc3c(C(N)=O)c(-c4ccc(Oc5ccccc5)cc4)nn32)CC1` [Zanubrutinib]: the remaining binding at 0.3 µM on ABL1-phosphorylated (setting [6]) is 77%; on AMPK-alpha1 (setting [6]), 88%; on CAMK2D (setting [6]), 80%; on CDK7 (setting [6]), 100%; on CDKL1 (setting [6]) it was 82%; at DYRK2 (setting [6]), 81%. Further, the remaining binding at 0.3 µM stood at 100% on HPK1 (setting [6]); 96% on IGF1R (setting [6]); 97% at KIT(A829P) (setting [6]); 92% at LIMK2 (setting [6]); 100% on MRCKA (setting [6]); 100% at MST2 (setting [6]). Besides, the remaining binding at 0.3 µM on NIM1 (setting [6]) came out at 97%; at PIK3CA (setting [6]) it was 57%; at PKMYT1 (setting [6]) it was 81%; at ROCK1 (setting [6]) it was 92%; in [2] (setting [6]) it was 100%; in assay [1] (setting [6]), 100%.
